Measurements reported in patent EP0133795B1 (THE McLEAN HOSPITAL CORPORATION, priority 1983, dated 1985).
Several values for one entry are separate records, joined by “and”; a condition that tells them apart may be missing. Identical values can stand only once. Entries after “also recorded” stand apart in the source; their conditions may differ.

Columns and labels:
[1] = system: general motor activity of mice; test: General locomotor activity of mice (Stoelting electronic activity monitor); type: in vivo, Balb/c mice; conditions: for activity in the general motor activity test (in words): mice
Procedure: The effect of intraperitoneal (i.p.) injections of test compounds on the general motor activity of mice during a 60-min period was determined in a Stoelting electronic activity monitor. Dose-response curves were obtained from which the half-maximally effective values were calculated and the results are shown in Table V.
The compounds were dissolved in 25% (vols.) propylene glycol in water and injected i.p. into Balb/c mice (18-24 g). Dose-response measurements were obtained for 6 animals per dose or time point. Activity was monitored for 60 min using a Stoelting Electronic Activity Monitor (EAM) apparatus to assess the general motor activity of the animals.
The general locomotor activity of mice was measured in the Stolting activity monitor apparatus during 60 min after an intraperitoneal (i.p.) injection of a test compound.

[2] = system: bicuculline-induced epileptic seizures; test: Delay of onset of bicuculline-induced seizures (anticonvulsant activity); type: in vivo, mouse; conditions: for Onset of seizures: % Saline Control / Survival Time: % Saline Control: 24 hr pretreatment, bicuculline 0.3 mg/kg; for In Vivo Delay of Time of Onset of Bicuculline-induced seizures: graded 0-5
Procedure: In a second behavioral test, the ability of a substance to prevent or delay the onset of biculline-induced epileptic seizures was measured. […] At 24 hr after i.p. injection of the cholesteryl derivative at a dose of 30 mg/kg (64 pmol/kg), the onset of seizures was delayed by 30% after an acute i.p. injection of bicuculline at 0.3 mg/kg. […] The dexamethasone and butyl esters had no effect.
The compounds were also injected i.p. at 1, 6 and 24 hr before the administration of bicuculline (0.3 mg/kg) s.c. The latency to the onset of generalized tonic-clonic epileptic seizures and the protection against the lethality of bicuculline were measured and evaluated as a percent of the data for vehicle-injected controls. No significant changes were obtained at the 1 hr and 6 hr time points. At the 24 hr time, however, some compounds delayed while others accelerated the onset of seizures.
The effect of the compound to delay the onset of a bicuculline-induced seizures was evaluated.
The ability of a substance to delay the onset of bicuculline-induced epileptic seizures in the mouse was measured (Table X). […] At 24 hr after i.p. injection of the cholesteryl derivative (6) at a dose of 30 mg/kg (64 pmol/kg), the onset of seizures was delayed by 30% (as compared to saline controls) after an acute i.p. injection of bicuculline at 0.3 mg/kg. […] The dexamethasone and butyl esters had no effect on seizures in mice.

GABA "receptors" = test: Inhibition of [3H]GABA binding to synaptic membranes from rat cerebellum; conditions: [3H]GABA (15 nM); synaptic membrane preparations from rat cerebellum
Procedure: IC50 values were determined by fitting data to linearized transformations, based on including at least two concentrations of antagonists above and below the IC50, with at least triplicate replication per concentration.

[3] = Comparative brain/liver uptake of 14C-labeled compounds (Brain Penetration Index)
Procedure: The criterion used herein for measuring the extent to which a compound, from which the radical A is derived, crosses the blood-brain barrier is based on the uptake of this compound by the brain relative to its uptake by the liver. […] Measurements of the quantity of a compound present in brain and liver at 5 minutes after a subcutaneous (s.c.) injection were used to calculate a Brain Penetration Index (BPI), with the equation: [formula]
This is the amount of the compound present per gram of brain tissue as a percent of the amount per gram of liver tissue.
This procedure has the advantage that even for a sparingly soluble lipid ester, which tends to remain largely at the site of the injection and slowly diffuse into the circulation, its level in the liver will reflect the amount available rather than the initial dose injected.
The uptake of a ^14C-labeled compound into brain was compared with the uptake into liver of the same animal.
All determinations were carried out at 5 min after injection. The volumes of the injected doses into mice (body weight, 18-24 g) for the i.v., i.p., and s.c. doses were 0.15, 0.3 and 0.5 ml, respectively. […] Each tissue was homogenized in 8 ml of pyridine in a glass homogenizer.
Each labeled test compound was injected as a solution in 0.5 ml of saline (Compound 7) or in 25% propylene glycol in water (Compounds 1, 5, 6) subcutaneously (s.c.) into young adult Balb/c mice (18-24 g body weight). After 5 min (or longer) animals were sacrificed and the brain and liver removed, weighed and homogenized respectively in 8 ml and 10 ml of brain protein solvent (1 % (w/v) sodium dodecyl sulfate in 6 M urea and 19 mM EDTA, pH 7.4, 0.03 M phosphate). Aliquots (0.5 ml) of the homogenates were mixed with 10 ml of Aquasol 2 (New England Nuclear) and counted in a Beckman liquid scintillation counter. The total uptake of each compound per g brain and liver tissue was calculated. The proportion of uptake into brain as compared to liver (100%) of the same animal was designated as the Brain Penetration Index (BPI), expressed as a percentage typically at 5 min after injection.
Each of the ^14C-labeled Compounds 26, 28 and 30 were in 125 µl of the propylene glycol diluted with water up to 0.5 ml, and then injected subcutaneously into test Balb/c mice (20 ± 2 g weight). After 5 min the animals were sacrificed and the brain and liver were removed, weighed and homogenized in 8 ml and 10 ml of brain protein solvent, respectively. Next 0.5 ml aliquots were mixed with 10 ml of Aquasol 2 (New England Nuclear Corp., Boston, MA) and counted in a Beckman liquid scintillation counter. The data for the label in each tissue were used to calculate the total quantity of the compound present in brain and liver per gram of tissue. The ratio of the amount in brain as a percent of that present in liver at 5 min was taken as the Brain Penetration Index (BPI). Measurements at longer uptake times were also obtained to evaluate the accumulation of the compounds in the brain.

CAI pyramidal cells = type: cell-based, Sprague-Dawley rats
Procedure: Transverse slices of hippocampus (350-375 µm thick) were prepared from Sprague-Dawley rats (200-300 g) and transferred onto a nylon net fixed over a 1.5 ml superfusion chamber. The slices were maintained at 32-33°C in a humidified atmosphere of 95%/5% 02/C02. The standard medium consisted of (in mM): NaCl, 125; KCI, 3.5; CaC12,2; MgS04, 1.5; NaH2PO4, 1; NaHC03, 24; and glucose, 10. Low chloride medium was prepared by substituting sodium isethionate for sodium chloride.
Extracellular potentials were recorded with NaCI-fitted micropipettes, and stimulus pulses were applied through bipolar platinum wire electrodes. The various drugs were dissolved in fresh medium (without glucose and phosphate) and applied to the surface of the tissue by pressure ejection from a micropipette, Sakai, Swartz and Woody, (1979).
The inhibitory effectiveness of various compounds was investigated by measuring their ability to suppress the extracellular population spike recorded from the hippocampal CAI pyramidal layer and elicited by stimulation of stratum radiatum axons. The amplitude of this monosynaptic population spike is essentially proportional to the number of pyramidal cells discharging in response to a stimulus volley, Andersen, Bliss and Skrede, (1971).
The various compounds were applied as droplets to the pyramidal layer approximately 75 µm from the recording electrode. The volume of a single drug application was about 300 picoliters. […] The volume ejected from each pipette was calibrated prior to use by measuring the diameter of the ejected droplet and adjusting the duration of the pressure pulse (usually 100-500 msec) until a standard diameter was reached. A constant droplet volume was used throughout the experiments. Where dose-response information was required, several pipettes with different drug concentrations were used.

general motor activity = conditions: systemically injected doses of up to 1 g/kg (9.7 mmol/kg); previous experiments; cited from earlier work
[4] = system: general motor activity of mice; test: General locomotor activity of mice (Stoelting electronic activity monitor); type: in vivo, Balb/c mice; conditions: 500 µg administered intracisternally directly into the cerebrospinal fluid
[5] = 260 μmol/kg s.c., 5 min, mice, mean ± S.E.M. (n = 3)
[6] = Table IX summary, 5-min Brain Penetration Index
[7] = Table VI, 270 μmol/kg s.c., 5 min, Balb/c mice

In the case of CC/C=C\C/C=C\C/C=C\CCCCCCCCOC(=O)CCCN [Compound 5, Linolenoyl Ester of y-aminobutyric Acid], the “activity in the general motor activity test (in words)” value ([1]; i.p., listed as linolenyl ester) is reported as “not active”, the “activity in the general motor activity test (in words)” value ([1]; i.p., listed as linolenyl ester of GABA) is reported as “insignificant effect; also recorded: no significant effect” and the “Onset of seizures: % Saline Control” value ([2]; 12 mg/kg) is reported as 102 ± 4 % Saline Control. For the same compound, the “Survival Time: % Saline Control” value ([2]; 12 mg/kg) was 118 ± 10 % Saline Control, the “Onset of seizures: % Saline Control” value ([2]; 17 mg/kg) was 73 ± 15 % Saline Control and the “Survival Time: % Saline Control” value ([2]; 17 mg/kg) was 111 ± 14 % Saline Control. The “Onset of seizures: % Saline Control” value ([2]; 25 mg/kg) was 78 ± 9 % Saline Control, the “Survival Time: % Saline Control” value ([2]; 25 mg/kg) was 68 ± 9 % Saline Control and the “Onset of seizures: % Saline Control” value ([2]; 36 mg/kg) was 50 ± 5 % Saline Control. For the same compound, the “Survival Time: % Saline Control” value ([2]; 36 mg/kg) was 62 ± 6 % Saline Control, the “Onset of seizures: % Saline Control” value ([2]; 50 mg/kg) was 40 ± 11 % Saline Control and the “Survival Time: % Saline Control” value ([2]; 50 mg/kg) was 63 ± 8 % Saline Control. The “acceleration of seizure onset time” value ([2]; 50 mg/kg, 24 hr, listed as linolenyl ester of GABA) was 70% and 60%, the “In Vivo Delay of Time of Onset of Bicuculline-induced seizures” value [2] was 0 and the IC50 (GABA "receptors") was 40 µM. The “(BRAIN)” value [3, 5] was 3.5 ± 0.4 nmol/g, the “(LIVER)” value [3, 5] was 141.7 ± 8 nmol/g and the BPI [3, 5] was 2 ± 0.6%. The “(BRAIN)” value ([3]; 260 μmol/kg s.c., 15 min, mice) was 11.0 nmol/g, the “(LIVER)” value ([3]; 260 μmol/kg s.c., 15 min, mice) was 220.8 nmol/g and the BPI ([3]; 260 μmol/kg s.c., 15 min, mice) was 5%. For the same compound, the “(BRAIN)” value ([3]; 260 μmol/kg s.c., 45 min, mice) was 24.9 nmol/g, the “(LIVER)” value ([3]; 260 μmol/kg s.c., 45 min, mice) was 33.3 nmol/g and the BPI ([3]; 260 μmol/kg s.c., 45 min, mice) was 75%. For the same compound, the “increase of 5-min BPI over GABA” value ([3]; 5 min after s.c. injection, relative to GABA) was 2 fold, the BPI [3, 6] was 2 and the “accumulation of radioactivity in brain persisted post-injection” value ([3]; s.c., mice) was 45 to 60 min.

With NCCCC(=O)O [GABA, gamma-aminobutyric acid, reference compound] the “effect after incubation of slices in PMSF (0.5 mM) for about 45 min” value (CAI pyramidal cells) was “no change”, the “effect with picrotoxin (10 µM) in the medium or low chloride medium” value (CAI pyramidal cells) was “little effect” and the “recovery of the population spike amplitude to 90% of the pre-droplet control value” (CAI pyramidal cells; after an approximately half-maximal dose) was 1 to 2 min. The “time until recovery was usually complete” value (CAI pyramidal cells; after droplet application) was 2 to 3 min, the “effect on motor activity in rats” value (general motor activity) was “little effect” and the “effect on general motor activity” value ([1]; 1.94 mmol/kg, i.p.) was “no significant effect”. For the same compound, the “effect on general locomotor activity” value ([1]; dose of 9.7 mmol/kg (1 g/kg)) was “no significant effect”, the “In Vivo Delay of Time of Onset of Bicuculline-induced seizures” value [2] was 0 and the “(BRAIN)” value ([3]; 30 μmol/kg i.v., 5 min, mouse) was 0.04 nmol/g. For the same compound, the “(LIVER)” value ([3]; 30 μmol/kg i.v., 5 min, mouse) was 4.2 nmol/g, the “BPI (5 min)” value ([3]; 30 μmol/kg i.v., 5 min, mouse) was 0.95% and the “(BRAIN)” value ([3]; 60 μmol/kg i.p., 5 min, mouse) was 0.23 nmol/g. For the same compound, the “(LIVER)” value ([3]; 60 μmol/kg i.p., 5 min, mouse) was 29 nmol/g, the “BPI (5 min)” value ([3]; 60 μmol/kg i.p., 5 min, mouse) was 0.80% and the “(BRAIN)” value ([3]; 120 μmol/kg i.p., 5 min, mouse) was 0.45 nmol/g. For the same compound, the “(LIVER)” value ([3]; 120 μmol/kg i.p., 5 min, mouse) was 46 nmol/g, the “BPI (5 min)” value ([3]; 120 μmol/kg i.p., 5 min, mouse) was 1.00% and the “(BRAIN)” value ([3]; 160 μmol/kg i.p., 5 min, mouse) was 0.66 nmol/g. The “(LIVER)” value ([3]; 160 μmol/kg i.p., 5 min, mouse) was 71 nmol/g, the “BPI (5 min)” value ([3]; 160 μmol/kg i.p., 5 min, mouse) was 0.93% and the “(BRAIN)” value ([3]; 210 μmol/kg i.p., 5 min, mouse) was 0.83 nmol/g. For the same compound, the “(LIVER)” value ([3]; 210 μmol/kg i.p., 5 min, mouse) was 83 nmol/g, the “BPI (5 min)” value ([3]; 210 μmol/kg i.p., 5 min, mouse) was 1.00% and the “(BRAIN)” value ([3]; 270 μmol/kg s.c., 5 min, mouse) was 1.03 nmol/g. The “(LIVER)” value ([3]; 270 μmol/kg s.c., 5 min, mouse) was 104 nmol/g, the “BPI (5 min)” value ([3]; 270 μmol/kg s.c., 5 min, mouse) was 1.00% and the “(BRAIN)” value ([3]; 380 μmol/kg s.c., 5 min, mouse) was 1.81 nmol/g. The “(LIVER)” value ([3]; 380 μmol/kg s.c., 5 min, mouse) was 165 nmol/g, the “BPI (5 min)” value ([3]; 380 μmol/kg s.c., 5 min, mouse) was 1.10% and the BPI [3, 6] was 1. The “(BRAIN)” value [3, 7] was 1.03 nmol/g, the “(LIVER)” value [3, 7] was 104 nmol/g and the BPI ([3]; Table VI, 270 μmol/kg s.c., 5 min, Balb/c mice, mean ± S.E.M.) was 1±.09%. For the same compound, the “effect on general motor activity” value [4] was “no significant effect”.
